Results reported in patent US20150239831A1, “INHIBITORS OF CENTRAL NERVOUS SYSTEM VASOACTIVE INHIBITORY PEPTIDE RECEPTOR 2” (The Trustees Of Columbia University In The City Of New York, priority 2012, published 2015).
Like-named read-outs stand apart in the source and are kept apart here. Blank lines part the entries; values can stand above or below the compound they belong to.

What was measured:
Assay type in all cases: cell-based
VIPR2 [1] = molecular target: T1, VIPR2 (Homo sapiens, UniProt P41587); experiment: BRET-based VIPR2 activation assay (CAMYEL cAMP sensor, CHO cells, VIP background)
T1 sequence (P41587 24-438): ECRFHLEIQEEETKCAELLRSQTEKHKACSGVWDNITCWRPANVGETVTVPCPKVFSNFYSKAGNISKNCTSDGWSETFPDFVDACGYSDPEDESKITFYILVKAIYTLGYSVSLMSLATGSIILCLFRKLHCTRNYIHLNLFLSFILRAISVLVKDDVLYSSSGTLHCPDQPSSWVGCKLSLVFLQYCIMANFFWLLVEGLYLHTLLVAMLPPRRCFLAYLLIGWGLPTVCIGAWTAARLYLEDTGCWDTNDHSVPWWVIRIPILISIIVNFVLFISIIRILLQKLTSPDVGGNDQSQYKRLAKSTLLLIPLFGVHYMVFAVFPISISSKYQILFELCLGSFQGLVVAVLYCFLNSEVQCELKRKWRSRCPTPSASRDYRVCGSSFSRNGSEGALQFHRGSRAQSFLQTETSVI
Description: In such a system, a detector cell is used which expresses both the VIPR2 receptor and “CAMYEL,” a YFP-Epac-RLuc8 BRET sensor construct. This construct includes Epac1, a guanine nucleotide exchange factor activated by direct binding of cAMP, fused with an enhanced YFP and Renilla luciferase 8 (Rluc8) allowing BRET upon cAMP-induced conformational changes (Jiang et al., 2007, J Biol Chem. 282:10576-10584). In response to elevated cAMP levels, there is a conformational change in Epac and therefore a change in the proximity of the fused chromophores, Rluc8 and YFP, resulting in measurable energy transfer. Coexpression of this BRET construct with VIPR2, optionally tagged at the N-terminus with a signal peptide and FLAG epitope (SF-VIPR2), for example in HEK293 cells, allows for detection of a VIPR2-specific response to cAMP. BRET readout may be calculated by quantifying the ratio of the light emitted by the acceptor, YFP (λ=525 nm), over the emission from the donor, RLuc8 (λ=485 nm). The proximity of the donor and acceptor, and therefore the BRET ratio, decreases in the presence of cAMP. In non-limiting specific embodiments, a stable cell line may be generated for this assay using the Flp-In T-Rex system in HEK293 cells. This system allows site-specific single copy integration of the gene of interest and control of expression levels using the Tet-repressor site making receptor expression tetracycline-inducible. For example, a CAMYEL and VIPR2 expressing line may be induced with 0.01 μg/ml tetracycline, then, 24 hours later cells may be collected and distributed into 96-well plates. After treatment with candidate inhibitor compound, for example at 5, 1 and 0.5 μM concentrations, cells may be incubated with the light emitting luciferin, coelenterazine H, for 5 min and incubated for 5 min with VIP at increasing concentrations, for example ranging from […] to 10 μM. The fluorescence and luminescence may then be quantified, for example using a PHERAstar (BMG) plate reader. […] Alternatively, analogous experiments may be performed using human cells harvested from a patient having a VIPR2 copy number variation, for example (but not by way of limitation) pluripotent stem cells prepared from such a patient and then transfected with a CAMYEL construct.
Numerous cellular assays were developed that were able to detect VIP responses absent of interference from non-specific vasopressin receptors using this CHO based system. VIPR2 is a Gs coupled receptor. Activation of VIPR2 by VIP leads to both an elevation in cAMP signaling and the recruitment of β-arrestin. A variety of combinations can be transiently transfect into these CHO cells for the assessment of cellular responses to VIP. For the BRET readout CHO cell lines expressing an YFP-Epac-RLuc8 (CAMYEL) BRET sensor were used to detect changes in cAMP. This construct includes Epac1, a guanine nucleotide exchange factor activated by direct binding of cAMP, fused to an enhanced YFP and RLuc8 allowing a change in BRET upon cAMP-induced conformational changes. The key for medium to high throughput screening assays is the use of stable cell lines allowing the continuous assaying of multiple compounds with the ability to generate large numbers of cells for rapid use. In these lines VIPR2 was expressed as one of the stable cell lines assays. This was introduced into the CHO-Flp-IN to allow the generation of isogenic stable cell lines expressing high levels of VIPR2 under control of the CMV promoter. This has been introduced into this line together with the CAMYEL construct previously described. This allows for detection of VIPR2-specific responses to cAMP. EYFP fluorescence and RLuc8 luminescence is quantified in the presence of 5 μM light-emitting luciferin, coelenterazine H, using a PHERAstar (BMG) plate reader. BRET is calculated by quantifying the ratio of the light emitted by the acceptor, YFP (λ=525 nm), over the emission from the donor, RLuc8 (λ=485 nm).
3. […]

VIPR2 [2] = molecular target: T1, VIPR2; experiment: % Activity: inhibition of VIP-induced cAMP elevation and β-arrestin recruitment (Table 2); set-up: expressed in transfected cells; host or cells: HEK293 cells transfected with VIPR2 in pCDNA3.1 (as described)
Summary of the method: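 cAMP: HEK293 stably expressing hVIPR2, inhibitor plus VIP 30 min, cAMP by HTRF (665/620 nm ratio ×10,000). β-arrestin: HEK293 with β-arrestin2-β-gal-EA, transiently transfected with VIPR2-ProLink; inhibitor 2 h at 37° C, enzyme complementation read by luminescence.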

VIPR2 [3] = molecular target: T1, VIPR2; experiment: Inhibition of VIP-induced β-arrestin recruitment (% Activity Arrestin); set-up: expressed in transfected cells; host or cells: HEK293 cells transfected with VIPR2 in pCDNA3.1 (as described)
Summary of the method: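 HEK293 cells stably expressing β-arrestin2–β-gal EA, transiently transfected with ProLink-tagged hVIPR2, plated overnight; inhibitor added for 2 h at 37 °C, 5% CO2. Receptor–arrestin complementation read by chemiluminescence after 5 min–1 h at room temperature; inhibition of VIP-induced recruitment reported as % activity.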

VIPR2 [4] = molecular target: T1, VIPR2; experiment: Inhibition of VIP-induced cAMP elevation (% Activity cAMP); set-up: expressed in transfected cells; host or cells: HEK293 cells transfected with VIPR2 in pCDNA3.1 (as described)
Summary of the method: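 HEK293 cells stably transfected with human VIPR2 were incubated with inhibitor and VIP for 30 min, then cAMP was detected by HTRF after at least 1 h at room temperature. The 665/620 nm ratio ×10,000 was calculated.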

[5] = Table 3, read-out: IC50 (from BRET)

SMILES: O=C(N[C@H]1c2ccccc2C[C@H]1O)[C@H](Cc1ccccc1)C[C@H](O)CNS(=O)(=O)c1ccc([N+](=O)[O-])cc1 [Ref C1, reference compound]
IC50 (VIPR2 [1]; Table 1, read-out: IC50): 1.3 µM | % Activity (VIPR2 [2]): 84.52%

SMILES: O=C([C@H](Cc1ccccc1)C[C@H](O)CNS(=O)(=O)c1ccc([N+](=O)[O-])cc1)N1CCCCC1 [Compound B18A]
inhibition at 0.5 µM (VIPR2 [3]; Batch 2): -10.2% | inhibition at 1 µM (VIPR2 [3]; Batch 2): -11.5% | inhibition at 5 µM (VIPR2 [3]; Batch 2): -2.8% | inhibition at 0.5 µM (VIPR2 [4]; Batch 2): -4.8% | inhibition at 1 µM (VIPR2 [4]; Batch 2): -4.8% | inhibition at 5 µM (VIPR2 [4]; Batch 2): 0.5% | % Activity (VIPR2 [2]): −1.15%

SMILES: O=C(NC[C@@H](O)C[C@@H](Cc1ccccc1)C(=O)N[C@H]1c2ccccc2C[C@H]1O)c1c(Cl)cc(Cl)cc1Cl [D]
inhibition at 0.5 µM (VIPR2 [3]; Batch 1): 23.9% | inhibition at 1 µM (VIPR2 [3]; Batch 1): 25.3% | inhibition at 5 µM (VIPR2 [3]; Batch 1): 31.5% | inhibition at 0.5 µM (VIPR2 [4]; Batch 1): 17.6% | inhibition at 1 µM (VIPR2 [4]; Batch 1): 14.8% | inhibition at 5 µM (VIPR2 [4]; Batch 1): 12.3% | % Activity (VIPR2 [2]): 21.9%

SMILES: C#CCNC(=O)[C@@H](Cc1ccccc1)C[C@H](O)CNS(=O)(=O)c1ccc([N+](=O)[O-])cc1 [Compound B21B]
inhibition at 0.5 µM (VIPR2 [3]; Batch 2): 3.3% | inhibition at 1 µM (VIPR2 [3]; Batch 2): 3.4% | inhibition at 5 µM (VIPR2 [3]; Batch 2): 7% | inhibition at 0.5 µM (VIPR2 [4]; Batch 2): 3.1% | inhibition at 1 µM (VIPR2 [4]; Batch 2): 7.3% | inhibition at 5 µM (VIPR2 [4]; Batch 2): 13.5% | % Activity (VIPR2 [2]): 10.25%

SMILES: CC(C)c1cc(C(C)C)c(S(=O)(=O)NC[C@@H](O)C[C@@H](Cc2ccccc2)C(=O)N[C@H]2c3ccccc3C[C@H]2O)c(C(C)C)c1 [J]
inhibition at 0.5 µM (VIPR2 [3]; Batch 1): 29.7% | inhibition at 1 µM (VIPR2 [3]; Batch 1): 30.9% | inhibition at 5 µM (VIPR2 [3]; Batch 1): 8.3% | inhibition at 0.5 µM (VIPR2 [4]; Batch 1): 19.5% | inhibition at 1 µM (VIPR2 [4]; Batch 1): 18.6% | inhibition at 5 µM (VIPR2 [4]; Batch 1): 90% | % Activity (VIPR2 [2]): 49.15%

Second part, the compound after the results:

IC50 (VIPR2 [1]; [5]): 10 µM
SMILES: O=C(N[C@H]1c2ccccc2C[C@H]1O)[C@H](Cc1ccccc1)C[C@H](O)CNS(=O)(=O)c1ccc2c(c1)CCC2 [Compound X108]

IC50 (VIPR2 [1]; [5]): 40.6 µM
SMILES: CC(O)c1ccc(S(=O)(=O)NC[C@@H](O)C[C@@H](Cc2ccccc2)C(=O)N[C@H]2c3ccccc3C[C@H]2O)cc1 (stereo partly drawn) [Compound X107]

IC50 (VIPR2 [1]; Table 4, read-out: IC50): 76.2 µM
SMILES: CO[C@@H]1Cc2ccccc2[C@@H]1NC(=O)[C@H](Cc1ccccc1)C[C@H](O)CNS(=O)(=O)c1ccc(C(C)=O)cc1 [Compound X124]

IC50 (VIPR2 [1]; Table 1, read-out: IC50): 0.28 µM | IC50 (VIPR2 [1]; [5]): 2.02 µM
SMILES: O=C(N[C@H]1c2ccccc2C[C@H]1O)[C@H](Cc1ccccc1)C[C@H](O)CNS(=O)(=O)c1ccc(Cl)cc1 [Compound X106]

IC50 (VIPR2 [1]; Table 4, read-out: IC50): 28.2 µM
SMILES: CO[C@H]1Cc2ccccc2[C@@H]1NC(=O)[C@H](Cc1ccccc1)C[C@H](O)CNS(=O)(=O)c1ccc2c(c1)OCCO2 [Compound X135]

IC50 (VIPR2 [1]; Table 1, read-out: IC50): 2.16 µM | IC50 (VIPR2 [1]; [5]): 3.81 µM
SMILES: O=C(N[C@H]1c2ccccc2C[C@H]1O)[C@H](Cc1ccccc1)C[C@H](O)CNS(=O)(=O)c1ccc2c(c1)OCO2 [Compound X110]

IC50 (VIPR2 [1]; Table 4, read-out: IC50): 13.3 µM
SMILES: CO[C@@H]1Cc2ccccc2[C@@H]1NC(=O)[C@H](Cc1ccccc1)C[C@H](O)CNS(=O)(=O)c1ccc(Cl)cc1 [Compound X126]

IC50 (VIPR2 [1]; Table 1, read-out: IC50): 0.206 µM | IC50 (VIPR2 [1]; [5]): 33.7 µM
SMILES: O=C(N[C@H]1c2ccccc2C[C@H]1O)[C@H](Cc1ccccc1)C[C@H](O)CNS(=O)(=O)c1ccc2c(c1)OCCO2 [Compound X109]

IC50 (VIPR2 [1]; [5]): 6.03 µM
SMILES: O=C(N[C@H]1c2ccccc2C[C@H]1O)[C@H](Cc1ccccc1)C[C@H](O)CNS(=O)(=O)c1ccc(F)cc1 [Compound X105]

IC50 (VIPR2 [1]; Table 1, read-out: IC50): 1.13 µM | IC50 (VIPR2 [1]; [5]): 45.8 µM
SMILES: CCc1ccc(S(=O)(=O)NC[C@@H](O)C[C@@H](Cc2ccccc2)C(=O)N[C@H]2c3ccccc3C[C@H]2O)cc1 [Compound X115]

inhibition at 0.5 µM (VIPR2 [3]; Batch 3): -5.6% | inhibition at 1 µM (VIPR2 [3]; Batch 3): -5.5% | inhibition at 5 µM (VIPR2 [3]; Batch 3): 6.7% | inhibition at 0.5 µM (VIPR2 [4]; Batch 3): 8.4% | inhibition at 1 µM (VIPR2 [4]; Batch 3): 18.6% | inhibition at 5 µM (VIPR2 [4]; Batch 3): 33.3% | % Activity (VIPR2 [2]): 20%
SMILES: Nc1ccc(S(=O)(=O)NC[C@@H](O)C[C@@H](Cc2ccccc2)C(=O)N[C@H]2c3ccccc3C[C@H]2O)cc1 [Compound X081]
